A short description of data set [1]: Solubility and stability in aqueous buffered / basic solution. It counts as physicochemical. The source says:
According to a preferred embodiment of the present invention, chromogenic enzyme substrate compounds of the general formula (8), where Y is a radical of an enzyme-specific sugar moiety Y--OH, preferably β-D-galactose or β-D-glucose, and R and R' are methyl, can be prepared by reacting the dimethyl chromogen (20) with a 1-halogeno-derivative of the enzyme-specific moiety, preferably a 1-bromo-derivative thereof, substituted at the hydroxy-positions thereof with protecting groups, preferably acetate protecting groups, to result in per-O-substituted derivatives which can be hydrolyzed to remove such protecting groups to obtain the desired chromogenic enzyme substrate compound. For example, the β-D-galactoside of (20), the chromogenic enzyme substrate (8) where Y is the radical of β-D-galactose and R and R' are methyl, can be prepared for use in the determination of β-D-galactosidase. In particular, the dimethyl acridinone chromogen (20), where R and R' are methyl in the general formula (2), is reacted with acetobromogalactose and silver oxide in ethyl acetate/quinoline to prepare the 7-(tetra-O-acetyl-β-D-galactopyranosyloxy)-9,9-dimethyl-9H-acridin-2-one (31) of the formula: [drawing 13] […] The resulting galactoside (32) has an absorbance (λmax) of 438 nm (yellow), an extinction coefficient of 27,400, and is soluble in a phosphate buffered solution (pH 7.4). […]

Data set [2] in a line: Visible absorbance (λmax, extinction coefficient) of substrate and chromogen. The class given is physicochemical. The settings on record: for absorbance (λmax): uncleaved substrate or protonated chromogen. From the text: According to a preferred embodiment of the present invention, chromogenic enzyme substrate compounds of the general formula (8), where Y is a radical of an enzyme-specific sugar moiety Y--OH, preferably β-D-galactose or β-D-glucose, and R and R' are methyl, can be prepared by reacting the dimethyl chromogen (20) with a 1-halogeno-derivative of the enzyme-specific moiety, preferably a 1-bromo-derivative thereof, substituted at the hydroxy-positions thereof with protecting groups, preferably acetate protecting groups, to result in per-O-substituted derivatives which can be hydrolyzed to remove such protecting groups to obtain the desired chromogenic enzyme substrate compound. For example, the β-D-galactoside of (20), the chromogenic enzyme substrate (8) where Y is the radical of β-D-galactose and R and R' are methyl, can be prepared for use in the determination of β-D-galactosidase. In particular, the dimethyl acridinone chromogen (20), where R and R' are methyl in the general formula (2), is reacted with acetobromogalactose and silver oxide in ethyl acetate/quinoline to prepare the 7-(tetra-O-acetyl-β-D-galactopyranosyloxy)-9,9-dimethyl-9H-acridin-2-one (31) of the formula: [drawing 13] The acetate protecting groups of (31) are then hydrolyzed with sodium methoxide in methanol to result in the desired 7-β-D-galactopyranosyloxy-9,9-dimethyl-9H-acridin-2-one (32) of the present invention of the formula: [drawing 14] The resulting galactoside (32) has an absorbance (λmax) of 438 nm (yellow), an extinction coefficient of 27,400, and is soluble in a phosphate buffered solution (pH 7.4).
(§1) (C), 2462 (1970), where R and R' in the general formula (2) are methyl.

Data set [3] can be described thus: Phenolic pKa of the chromogen. It counts as physicochemical.
Source text: as §1

The target of data set [4] is T1, β-D-galactosidase (Escherichia coli, UniProt P00722). Put plainly: Analytical test device for β-D-galactosidase, reflectance dose response. It counts as biochemical. The settings on record: 0.02-0.20 ng/ml β-D-galactosidase, reflectance at 630 nm after 50-70 seconds. As to the method: A 2 inch wide×2 inch long sheet of Whatman 54 filter paper (Whatman, Inc., Clifton, N.J., U.S.A.) was immersed in an aqueous solution comprising 0.3M bicine buffer (pH 7.9) and 4.0 mM MgCl2 and air-dried overnight at room temperature. The filter paper was then immersed in a methanol solution containing 15 mM of the substrate product (32) from Example 3 and air-dried for one hour at room temperature to obtain a filter paper which was yellow in color.
A 0.5 cm wide×1.0 cm long segment of the above-described impregnated yellow filter paper was mounted onto and along the edge of one surface of a 0.5 cm×8.125 cm polystyrene support (Tricite®, Dow Chemical Co., Midland, Mich., U.S.A.) previously laminated with a 2 mm strip of Double Stick® double-faced adhesive tape (3M Company, St. Paul, Minn., U.S.A.) for use as an analytical test device for the detection of β-D-galactosidase from a liquid test sample.
Ten analytical test devices were prepared according to Example 4 and employed to determine the dose response of the substrate product compound (32) of the present invention to β-D-galactosidase.
[…] aqueous test sample solutions containing β-D-galactosidase concentrations of 0.02 ng/ml, 0.04 ng/ml, 0.06 ng/ml, 0.08 ng/ml, 0.12 ng/ml, 0.14 ng/ml, 0.16 ng/ml, 0.18 ng/ml and 0.20 ng/ml were prepared and an analytical test device dipped into each.

Data set [5] concerns the target T1, β-D-galactosidase. Put plainly: Hydrolysis of the galactoside substrate by β-D-galactosidase (Kcat, Km). The class given is biochemical. The settings on record: 50 mM phosphate buffered solution (pH 7.4) containing 5 mM MgCl2. The source says: According to a preferred embodiment of the present invention, chromogenic enzyme substrate compounds of the general formula (8), where Y is a radical of an enzyme-specific sugar moiety Y--OH, preferably β-D-galactose or β-D-glucose, and R and R' are methyl, can be prepared by reacting the dimethyl chromogen (20) with a 1-halogeno-derivative of the enzyme-specific moiety, preferably a 1-bromo-derivative thereof, substituted at the hydroxy-positions thereof with protecting groups, preferably acetate protecting groups, to result in per-O-substituted derivatives which can be hydrolyzed to remove such protecting groups to obtain the desired chromogenic enzyme substrate compound. For example, the β-D-galactoside of (20), the chromogenic enzyme substrate (8) where Y is the radical of β-D-galactose and R and R' are methyl, can be prepared for use in the determination of β-D-galactosidase. In particular, the dimethyl acridinone chromogen (20), where R and R' are methyl in the general formula (2), is reacted with acetobromogalactose and silver oxide in ethyl acetate/quinoline to prepare the 7-(tetra-O-acetyl-β-D-galactopyranosyloxy)-9,9-dimethyl-9H-acridin-2-one (31) of the formula: [drawing 13] […] The resulting galactoside (32) has an absorbance (λmax) of 438 nm (yellow), an extinction coefficient of 27,400, and is soluble in a phosphate buffered solution (pH 7.4).

Molecules are shown by their SMILES.

T1 sequence (P00722 2-1024): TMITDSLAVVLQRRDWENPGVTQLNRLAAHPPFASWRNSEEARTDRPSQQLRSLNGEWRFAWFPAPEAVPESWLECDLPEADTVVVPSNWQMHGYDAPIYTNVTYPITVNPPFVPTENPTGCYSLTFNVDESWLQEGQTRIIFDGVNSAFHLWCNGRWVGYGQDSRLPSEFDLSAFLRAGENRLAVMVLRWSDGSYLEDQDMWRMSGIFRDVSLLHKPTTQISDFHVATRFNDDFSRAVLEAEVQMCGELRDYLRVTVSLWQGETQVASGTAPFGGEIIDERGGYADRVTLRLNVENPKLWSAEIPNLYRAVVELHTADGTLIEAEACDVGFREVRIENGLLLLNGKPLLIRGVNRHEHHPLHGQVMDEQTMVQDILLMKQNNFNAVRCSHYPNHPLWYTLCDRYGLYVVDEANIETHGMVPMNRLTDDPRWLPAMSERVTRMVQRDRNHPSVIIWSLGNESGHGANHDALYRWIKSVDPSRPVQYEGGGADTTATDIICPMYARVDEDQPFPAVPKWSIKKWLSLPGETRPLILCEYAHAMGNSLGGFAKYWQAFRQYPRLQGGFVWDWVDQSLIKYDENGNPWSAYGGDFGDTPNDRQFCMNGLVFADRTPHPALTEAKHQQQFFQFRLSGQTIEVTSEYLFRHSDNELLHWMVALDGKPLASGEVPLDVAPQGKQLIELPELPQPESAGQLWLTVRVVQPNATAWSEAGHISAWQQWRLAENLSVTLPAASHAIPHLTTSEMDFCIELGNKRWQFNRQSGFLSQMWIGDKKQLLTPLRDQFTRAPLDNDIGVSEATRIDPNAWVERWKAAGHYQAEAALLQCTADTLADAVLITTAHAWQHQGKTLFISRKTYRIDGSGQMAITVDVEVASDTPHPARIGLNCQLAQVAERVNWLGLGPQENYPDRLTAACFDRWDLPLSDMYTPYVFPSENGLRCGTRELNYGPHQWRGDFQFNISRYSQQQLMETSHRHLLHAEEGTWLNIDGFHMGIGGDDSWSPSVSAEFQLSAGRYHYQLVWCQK

For `CC1(C)C2=CC(=O)C=CC2=Nc2ccc(O)cc21` [Compound 20, 7-hydroxy-9,9-dimethyl-9H-acridin-2-one, reference compound], the solubility and stability entry in data set [1] (aqueous, basic solutions) is “soluble and stable”. Moreover, in data set [2], the “shift in the absorbance maximum on deprotonation” value is 176 nm and the “absorbance (λmax)” value was 459 nm. Moreover, the “absorbance of the deprotonated anion” value in data set [2] (deprotonated chromogen) came to 635 nm. Moreover, the “extinction coefficient of the anion” value in data set [2] (pH=10, in M-1 cm-1 (unit assumed)) is reported as 53,100. The “phenolic pKa” value in data set [3] worked out at 7.1.

As to `CC1(C)C2=CC(=O)C=CC2=Nc2ccc(O[C@@H]3O[C@H](CO)[C@H](O)[C@H](O)[C@H]3O)cc21` [Compound 32, 7-β-D-galactopyranosyloxy-9,9-dimethyl-9H-acridin-2-one], in data set [1] (phosphate buffered solution (pH 7.4)), the solubility result is “soluble”. At β-D-galactosidase [4], the “dose response of reflectance to β-D-galactosidase” value was “linear dose response”. Besides, the “rate at which the enzyme cleaves the substrate (Kcat)” value at β-D-galactosidase [5] was 1.32×10^4 mol. min.^-1 /mol. active site. Further, on β-D-galactosidase [5] (read-out: binding constant (Km)), the Km is 170 µM. Also, in data set [2], the “change in absorbance between substrate and liberated chromogen anion” value amounted to 196 nm; the “absorbance (λmax)” value is reported as 438 nm. In data set [2] (after hydrolysis by β-D-galactosidase, phosphate buffered solution), the “absorbance of the liberated chromogen anion” value is 634 nm. Moreover, in data set [2] (uncleaved substrate, at 438 nm, in M-1 cm-1 (unit assumed)), the extinction coefficient is 27,400.

(Values after patent US4810636A, “Chromogenic acridinone enzyme substrates” (Miles Inc., priority 1987, dated 1989).)
